Active and inactive are the calls of the source. The calls are words filed in the database; no cut-off is given here.
How the values were obtained:
[1] = Toxicity in 2 dpf zebra fish assessed as yolk sac absorption delay at 25 ug/ml after 3 days relative to control; set-up: species or system Danio rerio; details: zebrafish, 72 h, at 25 µg/mL, time 3 day
[2] = Drug metabolism in mouse blood assessed as metabolite formation by UPLC-TOF analysis; format: ADME, tissue-based
[3] = Effect on GFP expression in mouse HT-22 cells expressing pEGFP-N1 at 10 uM after 24 hrs by flow cytometric analysis; format: ADME, cell-based; details: ht-22, 24 h
PC-12 [4] = experiment: Neuroprotective activity against H2O2-induced cytotoxicity in rat PC-12 cells assessed as increase in cell viability preincubated for 2 hrs followed by H2O2 addition and measured after 24 hrs by MTT assay; format: functional, cell-based; details: dose 1-10 µM, time 26.0 hrs
Cholinesterase = Cholinesterase (Homo sapiens, UniProt P06276); experiment: Reversible inhibition of human BChE assessed as residual activity at 0.1 times of IC50 concentration after 240 mins relative to control
Danio rerio [5] = organism: Danio rerio; experiment: Antialzheimer activity in amyloid beta (1 to 40 residues)-induced zebra fish AD model assessed as reduction in vascular injury at 0.26 ug/ml relative to control; format: functional; set-up: scale not given: the % may be the effect or the level left; details: dose 0.26 µg/ml
HT-22 [6] = experiment: Activation of ubiquitin-proteasome system in mouse HT-22 cells expressing pRK5-GFP-Tau P301L mutant assessed as increase in tau degradation by measuring reduction in GFP level at 2.5 to 20 uM after 24 hrs by Western blot analysis; format: cell-based; details: filed as activator, dose 2.5-20 µM
[7] = Toxicity in 3 dpf zebra fish assessed as mortality at 0.78 ug/ml (reference value: 0%); set-up: species or system Danio rerio; details: zebrafish, at 0.78 µg/mL, read-out: Activity
[8] = Toxicity in 2 dpf zebra fish assessed as yolk sac absorption delay at 2.78 ug/ml after 3 days relative to control; set-up: species or system Danio rerio; details: zebrafish, 72 h, at 2.78 µg/mL, time 3 day
[9] = Metal chelating activity assessed as Al3+-compound complex formation in methanol at 37.5 uM by UV-Visible spectra analysis
[10] = Effective permeability of compound at 100 ug/m by PAMPA-BBB assay; format: ADME; details: read-out: Peff
PC-12 [11] = experiment: Neuroprotective activity against H2O2-induced cytotoxicity in rat PC-12 cells assessed as decrease in LDH activity at 1 to 10 uM preincubated for 2 hrs followed by H2O2 addition and measured after 24 hrs by LDH assay; format: functional, cell-based; details: dose 1-10 µM, time 26.0 hrs
[12] = Drug metabolism in mouse urine assessed as metabolite formation by UPLC-TOF analysis; format: ADME
SH-SY5Y [13] = experiment: Cytotoxicity against human SH-SY5Y cells assessed as cell viability up to 100 uM after 48 hrs by MTT assay relative to control; format: cell-based
[14] = Toxicity in 2 dpf zebra fish assessed as yolk sac absorption delay at 8.33 ug/ml after 3 days relative to control; set-up: species or system Danio rerio; details: zebrafish, 72 h, at 8.33 µg/mL, time 3 day
[15] = Inhibition of Cu2+-induced amyloid beta (1 to 42 residues) (unknown origin) aggregation at 25 uM after 24 hrs by thioflavin-T fluorescence method relative to control
[16] = Toxicity in 3 dpf zebra fish assessed as pericardium edema at 1.56 ug/ml; set-up: species or system Danio rerio; details: zebrafish; dose 1.56 µg/ml
Danio rerio [17] = organism: Danio rerio; experiment: Antialzheimer activity in amyloid beta (1 to 40 residues)-induced zebra fish AD model assessed as reduction in vascular injury at 0.09 ug/ml relative to control; format: functional; set-up: scale not given: the % may be the effect or the level left; details: dose 0.09 µg/ml
[18] = Disaggregation of Cu2+ induced amyloid beta (unknown origin) aggregation after 48 hrs by TEM analysis
HT-22 [19] = experiment: Activation of ubiquitin-proteasome system in mouse HT-22 cells expressing pEGFP-N1-APP assessed as increase in APP degradation by measuring reduction in GFP level at 2.5 to 20 uM after 24 hrs by Western blot analysis; format: cell-based; details: filed as activator, dose 2.5-20 µM
Acetylcholinesterase = Acetylcholinesterase (Electrophorus electricus, UniProt O42275); experiment: Inhibition of electric eel AChE by Ellman's method
[20] = Toxicity in 2 dpf zebra fish assessed as short or misshapen eye at 25 ug/ml after 3 days relative to control; set-up: species or system Danio rerio; details: zebrafish, 72 h, at 25 µg/mL, time 3 day
HT-22 [21] = experiment: Cytotoxicity against mouse HT-22 cells assessed as reduction in cell viability after 24 hrs by MTT assay; format: cell-based; details: HT-22, 24 h
HT-22 [22] = experiment: Activation of ubiquitin-proteasome system in mouse HT-22 cells expressing pEGFP-N1-APP assessed as increase in APP degradation by measuring reduction in GFP level at 2.5 to 20 uM after 24 hrs by flow cytometric analysis; format: cell-based; details: filed as activator, dose 2.5-20 µM
[23] = Toxicity in 3 dpf zebra fish assessed as mortality at 3.125 ug/ml (reference value: 0%); set-up: species or system Danio rerio; details: zebrafish, at 3.125 µg/mL, read-out: Activity
[24] = Metal chelating activity assessed as Zn2+-compound complex formation in methanol at 37.5 uM by UV-Visible spectra analysis
[25] = Metal chelating activity assessed as Cu2+-compound complex formation in methanol at 37.5 uM by UV-Visible spectra analysis
[26] = Toxicity in 3 dpf zebra fish assessed as mortality at 200 ug/ml (reference value: 0%); set-up: species or system Danio rerio; details: zebrafish, at 200 µg/mL, read-out: Activity
HT-22 [27] = experiment: Activation of ubiquitin-proteasome system in mouse HT-22 cells expressing pRK5-GFP-Tau assessed as increase in tau degradation by measuring reduction in GFP level at 2.5 to 20 uM after 24 hrs by Western blot analysis; format: cell-based; details: filed as activator, dose 2.5-20 µM
Mus musculus = experiment: Antialzheimer activity in scopolamine-induced Kunming mouse model of memory impairment assessed as latency time at 50 mg/kg , po by step-down passive avoidance test (reference value: 125.65 sec); format: functional
Danio rerio [28] = organism: Danio rerio; experiment: Antialzheimer activity in amyloid beta (1 to 40 residues)-induced zebra fish AD model assessed as reduction in vascular injury at 0.78 ug/ml relative to control; format: functional; set-up: scale not given: the % may be the effect or the level left; details: dose 0.78 µg/ml
HT-22 [29] = experiment: Activation of ubiquitin-proteasome system in mouse HT-22 cells expressing pRK5-GFP-Tau assessed as increase in tau degradation by measuring reduction in GFP level after 24 hrs by flow cytometric analysis; format: cell-based; details: filed as activator, dose 2.5-20 µM
HT-22 [30] = experiment: Activation of ubiquitin-proteasome system in mouse HT-22 cells expressing pRK5-GFP-Tau P301L mutant assessed as increase in tau degradation by measuring reduction in GFP level at 2.5 to 20 uM after 24 hrs by flow cytometric analysis; format: cell-based; details: filed as activator, dose 2.5-20 µM
[31] = Toxicity in 2 dpf zebra fish assessed as change in body shape at 25 ug/ml after 3 days relative to control; set-up: species or system Danio rerio; details: zebrafish, 72 h, at 25 µg/mL, time 3 day
[32] = Drug metabolism in human liver microsomes assessed as metabolite formation by UPLC-TOF analysis; format: ADME, Microsome
[33] = Toxicity in 2 dpf zebra fish assessed as pericardial edema at 25 ug/ml after 3 days relative to control; set-up: species or system Danio rerio; details: zebrafish, 72 h, at 25 µg/mL, time 3 day
SH-SY5Y [34] = experiment: Neuroprotective activity against amyloid beta (1 to 42 residues)-induced cytotoxicity in human SH-SY5Y cells assessed as increase in cell viability at 1 to 10 uM incubated for 48 hrs by MTT assay; format: functional, cell-based; details: dose 1-10 µM
[35] = Metal chelating activity assessed as Zn2+-compound complex formation in PBS buffer at pH 7.4 at 37.5 uM by UV-Visible spectra analysis

Sequence of Acetylcholinesterase (O42275 whole entry): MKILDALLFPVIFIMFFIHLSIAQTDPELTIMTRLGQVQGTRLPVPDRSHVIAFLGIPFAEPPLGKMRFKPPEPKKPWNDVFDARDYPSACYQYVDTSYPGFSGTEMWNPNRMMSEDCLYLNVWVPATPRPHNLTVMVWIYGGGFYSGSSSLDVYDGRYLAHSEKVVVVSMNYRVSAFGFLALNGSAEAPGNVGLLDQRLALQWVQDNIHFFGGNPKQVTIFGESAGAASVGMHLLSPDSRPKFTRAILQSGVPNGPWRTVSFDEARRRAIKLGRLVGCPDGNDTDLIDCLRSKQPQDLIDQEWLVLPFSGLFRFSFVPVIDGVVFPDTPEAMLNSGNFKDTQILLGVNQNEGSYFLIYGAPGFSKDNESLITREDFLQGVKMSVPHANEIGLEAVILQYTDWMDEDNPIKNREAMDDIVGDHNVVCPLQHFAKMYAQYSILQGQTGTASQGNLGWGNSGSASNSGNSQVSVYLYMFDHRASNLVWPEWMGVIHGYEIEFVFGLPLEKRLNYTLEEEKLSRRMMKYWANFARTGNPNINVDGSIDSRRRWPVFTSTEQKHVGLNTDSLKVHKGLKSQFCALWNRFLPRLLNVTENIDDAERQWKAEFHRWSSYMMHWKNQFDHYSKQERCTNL
Sequence of Cholinesterase (P06276 whole entry, the tested form may be a part): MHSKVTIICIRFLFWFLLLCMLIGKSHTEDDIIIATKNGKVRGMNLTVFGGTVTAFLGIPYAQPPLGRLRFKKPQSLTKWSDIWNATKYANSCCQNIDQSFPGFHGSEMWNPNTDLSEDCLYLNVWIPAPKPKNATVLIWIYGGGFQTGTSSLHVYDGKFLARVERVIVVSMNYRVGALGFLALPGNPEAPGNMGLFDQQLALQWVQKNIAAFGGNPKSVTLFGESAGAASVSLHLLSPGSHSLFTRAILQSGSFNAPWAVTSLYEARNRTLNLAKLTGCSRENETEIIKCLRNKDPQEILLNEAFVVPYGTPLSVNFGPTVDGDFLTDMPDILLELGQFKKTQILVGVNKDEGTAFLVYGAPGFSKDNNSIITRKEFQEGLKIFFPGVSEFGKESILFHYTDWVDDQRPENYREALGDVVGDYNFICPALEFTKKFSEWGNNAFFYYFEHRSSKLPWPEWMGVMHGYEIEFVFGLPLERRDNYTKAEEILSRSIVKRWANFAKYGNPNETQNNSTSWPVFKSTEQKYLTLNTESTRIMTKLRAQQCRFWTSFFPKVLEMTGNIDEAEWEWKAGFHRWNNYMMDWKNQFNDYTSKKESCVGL

CCN(CCCCOc1ccc(-c2cc(=O)c3c(O)cc(OCCCCN(CC)Cc4ccccc4)cc3o2)cc1)Cc1ccccc1
Activity [1]: 100%
Drug metabolism [2]: Metabolite_Detected
Activity [3]: Non-Toxic
Activity (PC-12 [4]): Dose-dependent effect
Activity (Cholinesterase): 97.6%
Activity (Danio rerio [5]): 12%
Activity (HT-22 [6]): Active
mortality at 0.78 ug/ml [7]: 0%
Activity [8]: 26.7%
Activity [9]: Active
Papp at 100 ug/m [10]: 1.68 ×10⁻⁶ cm/s
Activity (PC-12 [11]): Active
Drug metabolism [12]: Metabolite_Detected
Activity (SH-SY5Y [13]): Non-Toxic
Activity [14]: 73.3%
inhibition [15]: 81.3%
Activity [16]: Toxic
Activity (Danio rerio [17]): 9%
Activity [18]: Active
Activity (HT-22 [19]): Active
IC50 (Acetylcholinesterase): 3.7 µM
Activity [20]: 433%
IC50 (HT-22 [21]): 39.7 µM
Activity (HT-22 [22]): Active
mortality at 3.125 ug/ml [23]: 100%
Activity [24]: inactive
Activity [25]: Active
mortality at 200 ug/ml [26]: 100%
Activity (HT-22 [27]): Active
Time (Mus musculus): 227.34 s
Activity (Danio rerio [28]): 0%
Activity (HT-22 [29]): Dose-dependent effect
Activity (HT-22 [30]): Active
Activity [31]: 46.7%
Drug metabolism [32]: Metabolite_Detected
Activity [33]: 60%
Activity (SH-SY5Y [34]): Active
Activity [35]: inactive

Reference: ChEMBL document CHEMBL4765274, “The development of advanced structural framework as multi-target-directed ligands for the treatment of Alzheimer's disease” (Eur J Med Chem, 2020)
